Literature values in patent US9629360B2, “Water-based pesticidal suspension” (priority 2010, dated 2017).
In brackets after ≈: the same amount, converted by molar mass.

Conditions: 20° C.

Row | Structure (SMILES) | aqueous solubility
1 | Cc1nc(N(C)C)nc(OC(=O)N(C)C)c1C [pirimicarb] | 3100 mg/L (≈ 13 mM)
2 | COP(=O)(OC)SCn1c(=O)oc2cc(Cl)cnc21 [azamethiphos] | 1100 mg/L (≈ 3.39 mM)
